Consider three compounds from patent US20250177423A1, “PHOTORESPONSIVE PEPTIDE DELIVERY SYSTEM AND METHOD OF USING THE SAME” (THE UNIVERSITY OF HONG KONG, priority 2023, published 2025).

The test system of assay [1] is laser induced CNV. The assay is described as follows: Laser induced CNV mouse model, imageological examination (OCTA, FFA, OCT). It is filed as in vivo, C57BL/6 mice. Conditions: i.v. day 3 and 5, AS16 equivalent 2 mg/kg, day 7. The protocol:
Four laser spots were produced on the fundus of mice by 810 nm laser to induce CNV. Specifically, C57BL/6 mice (6-8 w) were anesthetized with 1% pentobarbital sodium (40 mg/kg). Then their pupils were dilated with 0.5% tropicamide eyedrops and received local anesthesia by tetracaine eye drops, followed by carboxymethylcellulose sodium eye drops for prevention of ocular surface dehydration. Each mouse's eyes were applied four laser (six in case of western blot analysis) burns (810 nm wavelength, 140 mW of power, 75 μm of spot size, 75 ms of duration) with OcuLight Infrared Laser System at almost equal distance to the optic nerve head. Afterwards, the mice received chloramphenicol eye drops for infection prevention and rested on heating pad until consciousness. […] On day 3 and day 5 after laser photocoagulation, 2 mg/kg AS16 peptide and quantity equivalent nanoLAMPs were administered intravenously through tail veins. […] On day 7 post CNV induction, FFA (fluorescence fundus angiography) and OCTA (optical coherence tomography angiography) images of each group was collected, and the mice were then euthanized. […] Only the scan that passed through the center of the lesion was used to measure the thickness and length of the CNV lesion, which was analyzed and calculated by using ImageJ software and GraphPad Prism. […]

The subject of assay [2] is HUVEC cells. In words: Migration assay (trans-well). Conditions: without light irradiation; AS16 equivalent 5 μM; 24 h. It is filed as cell-based, human. Here is the method:
200 μL serum-free medium containing 2*10^4 HUVEC cells were seeded in the upper chamber of the trans-well and 600 μL full medium was loaded in the lower chamber. Different drugs were added to the upper chamber. The grouping and treatment method as well as the calculation was consistent with above.
(§1) To verify the anti-angiogenic property of nanoLAMPs in vitro, tube formation assay, migration assay, and wound healing assay were also conducted on HUVECs and the concentration of each group was set equal to nanoLAMPs containing 5 μM AS16 peptide.

Assay [3] relates to laser induced CNV. The assay is described as follows: Laser induced CNV mouse model, isolated tissue (choroidal flat mounts CD31/Ki-67, H&E). The following applies: without light irradiation; systemic administration. It is filed as in vivo, C57BL/6 mice. The protocol:
Four laser spots were produced on the fundus of mice by 810 nm laser to induce CNV. Specifically, C57BL/6 mice (6-8 w) were anesthetized with 1% pentobarbital sodium (40 mg/kg). Then their pupils were dilated with 0.5% tropicamide eyedrops and received local anesthesia by tetracaine eye drops, followed by carboxymethylcellulose sodium eye drops for prevention of ocular surface dehydration. Each mouse's eyes were applied four laser (six in case of western blot analysis) burns (810 nm wavelength, 140 mW of power, 75 μm of spot size, 75 ms of duration) with OcuLight Infrared Laser System at almost equal distance to the optic nerve head. Afterwards, the mice received chloramphenicol eye drops for infection prevention and rested on heating pad until consciousness. […] On day 3 and day 5 after laser photocoagulation, 2 mg/kg AS16 peptide and quantity equivalent nanoLAMPs were administered intravenously through tail veins. […] On day 7 post CNV induction, FFA (fluorescence fundus angiography) and OCTA (optical coherence tomography angiography) images of each group was collected, and the mice were then euthanized. […] Flat-mounted RPE-choroid slides were prepared by making 4 cuts from margin to the optic nerve, and the fluorescence images were acquired by confocal microscopy (LMS980 Carl Zeiss). The CNV lesion area was quantitatively analyzed by ImageJ software. […]

Assay [4] relates to HUVEC cells. In words: Wound healing assay. It is filed as cell-based, human. The following applies: without light irradiation; AS16 5 μM. The protocol: 5*10^5 HUVEC cells were seeded in the 24-well plates and incubated until they reached 90% confluence. Afterwards, a scratch crossing each well was conducted by 200 μL pipette head. The cells were then be washed with PBS for 2 times to remove the flouting cells and incubated with 1 ml DMEM medium with 5% FBS. The grouping and treatment method was consistent with above. The data of each group was measured and analyzed by Image J and GraphPad Prism, respectively.
as §1

For assay [5], the system named is IL-2 and TNF-α gene expression in Jurkat T cells. The assay is described as follows: RT-qPCR of cytokine gene expression in Jurkat T cells co-cultured with MDA-MB-231 cells (PD-L1 blockade). It is filed as cell-based. Conditions: Jurkat T cells after co-culture with MDA-MB-231 cells; FM12 released from cFM12 nanoparticles; vs PBS control. An excerpt:
FIGS. 13A-F. BODIPY-caged FM12 peptide (cFM12) nanoparticles for photo-triggered PD-L1 blockade. […] (E) Size distribution of nanoparticles. (F) Schematic diagram of cFM12 nanoparticles. (*: p<0.05; **: p<0.01; ***: p<0.001). The data are presented as mean±SEM.
To further explore whether the BODIPY photocage can be utilized to deliver other hydrophilic peptides, a peptide inhibitor (FPNWSLRPMNQM, SEQ ID NO: 2, FM12) targeting programmed death ligand 1 (PD-L1) was conjugated with BODIPY at N-terminus to synthesize BODIPY-caged FM12 (cFM12). The conjugate could also form stable polymeric nanoparticles with the help of PEG3.4K-PLA5K. […] For nanoparticle preparation, in brief, 2 μL of 10 mg/mL cFM12 was mixed with 2 μL of 100 mg/mL PEG3.4K-PLA5K in DMSO solution. […] As shown in FIGS. 13e and 13f, the fabricated nanoparticles had well-dispersed size distribution with diameter around 122 nm and PDI around 0.2.

As for `COc1ccc(C=CC2=[N+]3C(=C(CO)c4c(C)cc(C=Cc5ccc(OC)cc5)n4[B-]3(C)C)C(C)=C2)cc1` [BODIPY, (3,7-bis((E)-4-methoxystyryl)-1,5,5,9-tetramethyl-5H-4λ4,5λ4-dipyrrolo[1,2-c:2′,1′-f][1,3,2]diazaborinin-10-yl)methanol], in assay [1] (with light irradiation (656 nm, 50mw/cm^2, 5 min)), the “CNV area by OCTA” value is “negligible effect”.
ATWLPPRAANLLMAAS [AS16 peptide]: the “CNV area by OCTA” value in assay [1] (without light exposure) was “negligible effect”. In addition, the HUVEC migration entry in assay [2] is reported as “least migrated HUVECs”. In addition, in assay [3], the “therapeutic effect compared with control group, tests in vivo” value was “negligible therapeutic effect”. Also, the “wound healing (recovery of scratches)” value in assay [4] was “significant compromised recovery of generated scratches”.
For the compound FPNWSLRPMNQM [FM12 peptide], in assay [5], the “gene expression level of IL-2” value is reported as “promote the gene expression level” and the “gene expression level of TNF-α” value is given as “promote the gene expression level”.
